What was measured:
Acute toxicity = conditions: mouse, in vivo; Swiss mice, oral, observation 14 days
Procedure: The acute toxicity was determined by administering by oral route the substances under exam to Swiss mice; average weight 20±2 g. The observation period was 14 days. 10 Animals were used for each tested dose.

Tremors by oxotremorine = experiment: Oxotremorine tremors in the mouse; format: in vivo; conditions: oral 60 minutes before 2 mg/kg i.p. oxotremorine, read-out: Tremors by oxotremorine ED50 (confidence limits p)
Stress ulcer = Stress ulcer (restraint+immersion) in the rat; format: in vivo; conditions: po, 6 hours immersion at about 20° C., ulcer score 0 to 5, read-out: Antiulcer activity (stress ulcer) ED50 (confidence limits p = 0.95)
Procedure: 2. Stress ulcer (restraint+immersion) in the rat The method described by Takagi, K., Okabes, S., Jap. J. Pharmacol., 18, 9 (1968) has been used. The animals fasted for 48 hours were immobilized in a stress cage (drilled cylindrical tube 14.5×3.5 cm) and immersed in H2 O (at a temperature of about 20° C.) up to the xiphoid process. After 6 hours immersion the animals were sacrificed in excess ether, the stomach was drawn and opened along the great curvature. The ulcers were evaluated according to a score ranging from 0 to 5 assigning: 0.5 for each small ulcera (<3 mm) or in the presence of erosions or haemorrages 1 for each great ulcer (>3 mm). The oral treatment with the reference drug pirenzepine at the doses of 12.5--25--50 mg/kg has been carried out 1 hour before the stress.

Gastric acid secretion = Gastric acid secretion in the pylorus ligated rat; format: in vivo, male Sprague-Dawley rats; conditions: oral immediately after pylorus ligation, ligation 4 hours, read-out: Antisecretory activity ED50 (confidence limits p = 0.95)
Procedure: 1. Gastric acid secretion in the pylorus ligated rat The method of […]., Gruenstein M., Siplet H., Gastroenterology, 5, 43 (1945) was used, slightly modified according to the following: Male Sprague-Dawley rats weighing 150±5 g fasting since 48 hours were used. Pylorus ligation was performed for 4 hours. The products under exam were administered by the oral route immediately after the ligation.

Carbachole salivation = experiment: Charbacole salivation in the rat; format: in vivo, male Sprague-Dawley rats; conditions: 1 h, oral one hour before 1 mg/kg i.p. charbacole, read-out: Carbachole salivation ED50 (confidence limits p = 0.95)
Procedure: 3. Charbacole salivation in the rat The method cited by R. Turner: "Parasympatholytic Agents" in R. Turner "Screening Methods in Pharmacology" pag. 137. Academic Press. New York & London 1965, with slight changes, was used. Male Sprague-Dawley rats, average weight 150±5 g, fasted for 24 hours, were used. The salivation was induced by the intraperitoneal administration of 1 mg/kg of charbacole. The products under exam were administered orally one hour before the chollinergic stimulus.

| SMILES | LD50 at 336 h (Acute toxicity) | ED50 (Tremors by oxotremorine) | ED50 (Stress ulcer) | ED50 (Gastric acid secretion) | ED50 (Carbachole salivation) |
| --- | --- | --- | --- | --- | --- |
| CN1CCN(CC(=O)N2c3ccsc3C(=O)Nc3cccnc32)CC1.Cl [Example 3, 4-[(4-Methylpiperazin-1-yl)acetyl]-4,9-dihydro-10H-pyrido[3,2-b]thieno[3,2-e][1,4]-diazepin-10-one hydrochloride] | > 2000 mg/kg | > 1000 mg/kg | 55.9 mg/kg | 27.6 mg/kg | > 200 mg/kg |
| CN1CCN(CC(=O)N2c3cscc3C(=O)Nc3cccnc32)CC1 [Example 13, 4-[(4-Methylpiperazin-1-yl)acetyl]-4,9-dihydro-10H-pyrido[3,2-b]thieno[3,4-e][1,4]-diazepin-10-one] | > 1000 mg/kg | > 1000 mg/kg | 28.8 mg/kg | 12.4 mg/kg | > 200 mg/kg |
| Cc1scc2c1N(C(=O)CN1CCN(C)CC1)c1ncccc1NC2=O [Example 14, 4-[(4-Methylpiperazin-1-yl)acetyl]-3-methyl-4,9-dihydro-10H-pyrido[3,2-b]thieno[3,4-e][1,4]-diazepin-10-one] | > 500 mg/kg | > 10000 mg/kg | 4.43 mg/kg | 3.12 mg/kg | 3.36 mg/kg |
